Laboratory results taken from PubChem BioAssay (NCI).
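Five concentrations, 48 hours, 96-well plates. GI50 = concentration required for 50% inhibition of growth. TGI is the concentration that stops growth completely.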

Assays:
Assay in all cases: NCI tumour cell line growth inhibition, 48 h
CCRF-CEM leukemia = test system: CCRF-CEM leukemia
HOP-92 NSCLC = test system: HOP-92 NSCLC
A498 renal = test system: A498 renal
UO-31 renal = test system: UO-31 renal
SR leukemia = test system: SR leukemia
HS 578T breast = test system: HS 578T breast
K-562 leukemia = test system: K-562 leukemia
SNB-75 CNS = test system: SNB-75 CNS
RXF 393 renal = test system: RXF 393 renal
DU-145 prostate = test system: DU-145 prostate
SNB-19 CNS = test system: SNB-19 CNS
NCI/ADR-RES ovarian = test system: NCI/ADR-RES ovarian
U251 CNS = test system: U251 CNS
OVCAR-8 ovarian = test system: OVCAR-8 ovarian
OVCAR-5 ovarian = test system: OVCAR-5 ovarian
MALME-3M melanoma = test system: MALME-3M melanoma
SK-MEL-2 melanoma = test system: SK-MEL-2 melanoma
KM12 colon = test system: KM12 colon
SK-MEL-5 melanoma = test system: SK-MEL-5 melanoma
CAKI-1 renal = test system: CAKI-1 renal
OVCAR-3 ovarian = test system: OVCAR-3 ovarian
NCI-H460 lung = test system: NCI-H460 lung
SW-620 colon = test system: SW-620 colon
A549 NSCLC = test system: A549 NSCLC
SF-295 CNS = test system: SF-295 CNS
SF-268 CNS = test system: SF-268 CNS
COLO 205 colon = test system: COLO 205 colon
MCF7 breast = test system: MCF7 breast
HOP-62 NSCLC = test system: HOP-62 NSCLC
IGROV1 ovarian = test system: IGROV1 ovarian
SN12C renal = test system: SN12C renal
SF-539 CNS = test system: SF-539 CNS
MDA-MB-435 = test system: MDA-MB-435
HCT-15 colon = test system: HCT-15 colon
NCI-H522 lung = test system: NCI-H522 lung
SK-OV-3 ovarian = test system: SK-OV-3 ovarian
HCT-116 colon = test system: HCT-116 colon
HCC-2998 colon = test system: HCC-2998 colon
NCI-H226 lung = test system: NCI-H226 lung
HL-60(TB) leukemia = test system: HL-60(TB) leukemia
SK-MEL-28 melanoma = test system: SK-MEL-28 melanoma
LOX IMVI melanoma = test system: LOX IMVI melanoma
RPMI-8226 leukemia = test system: RPMI-8226 leukemia
ACHN renal = test system: ACHN renal
786-0 renal = test system: 786-0 renal
OVCAR-4 ovarian = test system: OVCAR-4 ovarian
PC-3 prostate = test system: PC-3 prostate
M14 melanoma = test system: M14 melanoma
MOLT-4 leukemia = test system: MOLT-4 leukemia
MDA-MB-231 breast = test system: MDA-MB-231 breast
NCI-H23 lung = test system: NCI-H23 lung
BT-549 breast = test system: BT-549 breast
HT29 colon = test system: HT29 colon

CCOC(=O)c1sc(-c2ccc(OS(=O)(=O)c3ccccc3[N+](=O)[O-])c(C=O)c2)nc1C gave a GI50 (CCRF-CEM leukemia) of 1.83 µM, a TGI (CCRF-CEM leukemia) of 4.49 µM and a GI50 (HOP-92 NSCLC) of 1.92 µM. It also gave a TGI (HOP-92 NSCLC) of 5.5 µM, a GI50 (A498 renal) of 0.532 µM and a TGI (A498 renal) of 7.57 µM. The GI50 (UO-31 renal) was 2.36 µM, the TGI (UO-31 renal) was greater than 100 µM and the GI50 (SR leukemia) was 1.96 µM. It also gave a TGI (SR leukemia) greater than 100 µM, a GI50 (HS 578T breast) of 2.99 µM and a TGI (HS 578T breast) greater than 100 µM. The GI50 (K-562 leukemia) was 1.61 µM, the TGI (K-562 leukemia) was greater than 100 µM and the GI50 (SNB-75 CNS) was 1.37 µM. It also gave a TGI (SNB-75 CNS) of 8.44 µM, a GI50 (RXF 393 renal) of 1.62 µM and a TGI (RXF 393 renal) of 5.77 µM. The GI50 (DU-145 prostate) was 3.24 µM and the TGI (DU-145 prostate) was greater than 100 µM.
OCc1ccc(N2CCc3cccc(F)c3C2)cc1Cl was tested, and the GI50 (SNB-19 CNS) was 30.9 µM, the TGI (SNB-19 CNS) was greater than 100 µM and the GI50 (CCRF-CEM leukemia) was 24.9 µM. It also gave a TGI (CCRF-CEM leukemia) of 99.1 µM, a GI50 (NCI/ADR-RES ovarian) of 7.68 µM and a TGI (NCI/ADR-RES ovarian) of 37.1 µM. It also gave a GI50 (U251 CNS) of less than 0.0297 µM, a TGI (U251 CNS) of 36.3 µM and a GI50 (OVCAR-8 ovarian) of 5.85 µM. For the same compound, the TGI (OVCAR-8 ovarian) was 41.9 µM, the GI50 (OVCAR-5 ovarian) was 0.0253 µM and the TGI (OVCAR-5 ovarian) was 0.151 µM. For the same compound, the GI50 (MALME-3M melanoma) was 24.1 µM, the TGI (MALME-3M melanoma) was 63.6 µM and the GI50 (HOP-92 NSCLC) was 0.0873 µM. For the same compound, the TGI (HOP-92 NSCLC) was 14.2 µM, the TGI (SK-MEL-2 melanoma) was 30.5 µM and the GI50 (KM12 colon) was 15.7 µM. It also gave a TGI (KM12 colon) of 48.6 µM, a GI50 (SK-MEL-5 melanoma) of 14.9 µM and a TGI (SK-MEL-5 melanoma) of 35.4 µM. It also gave a GI50 (CAKI-1 renal) of 1.19 µM, a TGI (CAKI-1 renal) of 21.8 µM and a GI50 (OVCAR-3 ovarian) of less than 0.0169 µM. It also gave a TGI (OVCAR-3 ovarian) of 0.0505 µM, a GI50 (A498 renal) of less than 0.0145 µM and a TGI (A498 renal) of 0.0405 µM. The GI50 (NCI-H460 lung) was less than 0.0194 µM, the TGI (NCI-H460 lung) was 1.23 µM and the GI50 (SW-620 colon) was less than 0.0209 µM. The TGI (SW-620 colon) was greater than 79.7 µM, the GI50 (UO-31 renal) was 14.5 µM and the TGI (UO-31 renal) was 46.6 µM. It also gave a GI50 (A549 NSCLC) of 0.189 µM, a TGI (A549 NSCLC) of 15.7 µM and a GI50 (SF-295 CNS) of 0.246 µM. The TGI (SF-295 CNS) was 18.1 µM, the GI50 (SF-268 CNS) was 24.5 µM and the TGI (SF-268 CNS) was greater than 89.4 µM. It also gave a GI50 (COLO 205 colon) of 0.0197 µM, a TGI (COLO 205 colon) of 0.175 µM and a GI50 (SR leukemia) of 19.3 µM. The TGI (SR leukemia) was 58.8 µM, the TGI (MCF7 breast) was 53.4 µM and the GI50 (HS 578T breast) was 21.9 µM. It also gave a TGI (HS 578T breast) of 77.8 µM, a GI50 (HOP-62 NSCLC) of 0.0275 µM and a TGI (HOP-62 NSCLC) of 27.2 µM. It also gave a GI50 (IGROV1 ovarian) of 0.025 µM, a TGI (IGROV1 ovarian) of 0.101 µM and a GI50 (SN12C renal) of 14.6 µM. For the same compound, the TGI (SN12C renal) was greater than 70.2 µM, the GI50 (SF-539 CNS) was 27.8 µM and the TGI (SF-539 CNS) was greater than 87.7 µM. It also gave a GI50 (MDA-MB-435) of 19.5 µM, a TGI (MDA-MB-435) of 51.8 µM and a GI50 (HCT-15 colon) of 10.4 µM. For the same compound, the TGI (HCT-15 colon) was 36.3 µM, the GI50 (K-562 leukemia) was less than 0.0206 µM and the TGI (K-562 leukemia) was 16.5 µM. For the same compound, the GI50 (NCI-H522 lung) was 13.4 µM, the TGI (NCI-H522 lung) was 36.3 µM and the GI50 (SK-OV-3 ovarian) was 1.89 µM. The TGI (SK-OV-3 ovarian) was 14.6 µM, the GI50 (HCT-116 colon) was less than 0.0104 µM and the TGI (HCT-116 colon) was 14.6 µM. The GI50 (SNB-75 CNS) was 13.9 µM, the TGI (SNB-75 CNS) was 47.7 µM and the GI50 (HCC-2998 colon) was 1.96 µM. The TGI (HCC-2998 colon) was 11 µM, the GI50 (NCI-H226 lung) was 0.0191 µM and the TGI (NCI-H226 lung) was 0.0936 µM. The GI50 (HL-60(TB) leukemia) was 18.4 µM, the TGI (HL-60(TB) leukemia) was 53.2 µM and the GI50 (SK-MEL-28 melanoma) was 25.7 µM. It also gave a TGI (SK-MEL-28 melanoma) greater than 79.7 µM, a GI50 (LOX IMVI melanoma) of 23.5 µM and a TGI (LOX IMVI melanoma) greater than 63.2 µM. It also gave a TGI (RPMI-8226 leukemia) of 20.5 µM, a GI50 (ACHN renal) of 20.7 µM and a TGI (ACHN renal) of 67.3 µM. For the same compound, the GI50 (786-0 renal) was 16.7 µM, the TGI (786-0 renal) was 44.7 µM and the GI50 (OVCAR-4 ovarian) was 0.0279 µM. The TGI (OVCAR-4 ovarian) was 0.201 µM, the GI50 (PC-3 prostate) was 16 µM and the TGI (PC-3 prostate) was 47.9 µM. It also gave a GI50 (RXF 393 renal) of 12.6 µM, a TGI (RXF 393 renal) of 27.9 µM and a GI50 (M14 melanoma) of 29.3 µM. It also gave a TGI (M14 melanoma) greater than 78.7 µM, a GI50 (DU-145 prostate) of 4.5 µM and a TGI (DU-145 prostate) of 30.3 µM. For the same compound, the GI50 (MOLT-4 leukemia) was 23 µM, the TGI (MOLT-4 leukemia) was 71 µM and the GI50 (MDA-MB-231 breast) was 13.4 µM. For the same compound, the TGI (MDA-MB-231 breast) was 43.5 µM, the GI50 (NCI-H23 lung) was 13.9 µM and the TGI (NCI-H23 lung) was 40.9 µM. It also gave a GI50 (BT-549 breast) of 16.9 µM, a TGI (BT-549 breast) of 36.7 µM and a GI50 (HT29 colon) of 0.0334 µM. For the same compound, the TGI (HT29 colon) was 35.5 µM.
